Entries after “also recorded” stand apart in the source; their conditions may differ.

This is an account of results in patent publication US6998413B1, “Treatment of neoplasms with yujungamycins” (priority 1999, dated 2006).

One series relates to B-16 melanoma. The experiment in a line: B-16 melanoma model (syngraft) in C57/bl mice. It counts as in vivo. Particulars: 1 and 3 mg/Kg IP on days 1, 5, and 9 after tumor implantation into front flank muscle. The method, then:
These compounds were studied at two dose levels: 1 and 3 mg/Kg IP on days 1, 5, and 9 after tumor implantation into the front flank muscle. Shown in the bar graph is the area under the tumor versus time curve plotted against dose for each enantiomer.

A further series deals with Poly [dA] Poly [dT]. The experiment in a line: Alkylation of DNA by reduced PBIs. It counts as biochemical. Particulars: reduced PBI (H2, Pd on carbon), pH 7.4 tris buffer, 30° C., 24 h. How it is done:
(§1) Alkylation of DNA by Reduced PBIs. To a mixture of 1–2 mg of DNA (poly[dA]. poly[dT], poly[dG]. poly[dC], poly[dA-dT]. poly[dT-dA]) in 2.0 mL of 0.05 M of pH 7.4 tris buffer and 2 mg of Pd on carbon was added a five-to-one base pair equivalent amount of the PBI dissolved in 0.5 mL of dimethylsulfoxide. The resulting solution was degassed under argon for 30 min., after which the mixture was purged with H2 for 10 min. The solution was then purged with argon for 10 min. and the placed in a 30° C. bath for 24 h. The reaction was opened to the air and the catalyst was removed with a Millex-PF […] syringe filter. The filtrate was adjusted to 0.3M acetate with a 3M stock solution of pH 5.1 acetate and the diluted with two volumes of ethanol. The mixture was chilled at −20° C. for 12 h and the DNA pellet collected by centrifuging at 12,000 g for 20 min. The pellet was redissolved in water and then precipitated and centrifuged again. The resulting pellet was suspended in ethanol, centrifuged, and dried.

In the next series the test system is Poly [dG] Poly [dC]. Put plainly: Alkylation of DNA by reduced PBIs. It counts as biochemical. Particulars: reduced PBI (H2, Pd on carbon), pH 7.4 tris buffer, 30° C., 24 h. The method, then: as §1
A further series relates to Human tumor cells. The experiment in a line: Hollow fiber assay (in vivo screen, National Cancer Institute). The settings on record: for Total Score (hollow fiber score): 12 cell lines × 2 sites × 2 doses, highest possible score 96; for Intraperitonal Score: fibers implanted intraperitoneally; for Intraperitonal Score / Subcutaneous Score: IP dosing QD×4, high and low dose, score of two per test with % T/C of 50 or less; for Subcutaneous Score: fibers implanted subcutaneously; for Cancer cell line types sensitive: hollow fiber assay. The method, then: Hollow fiber assays are carried out in the following way. Human tumor cells are cultivated in polyvinylidene fluoride hollow fibers, and a sample of each cell line is implanted into each of two physiological compartments (intraperitoneally and subcutaneously). Mice are treated with either a high or a low dose using a QD×4 schedule (four daily treatments) administered intraperitoneally. Altogether, twelve cell lines are studied resulting in 48 possible test combinations (12 cell lines×2 sites×2 doses). […] These compounds are covered by two patents. (Skibo, E. B. and Islam, I. Synthesis and Elucidation of Azamitosene and Iminoazamitosene. U.S. Pat. No. 5,015,742 1991; Skibo, E. B., Islam, I. and Alberts, D. S., Antineoplastic Agents and Methods of Using the Same. U.S. Pat. No. 5,246,955, 1993).

For another series, the system named is DT-diaphorase. Put plainly: DT-Diaphorase reduction kinetics. It counts as biochemical. The settings on record: pH 7.4 tris.HCl, anaerobic, 30° C., 0.3 mM NADH, 14.5 nM enzyme active sites. The method, then:
DT-Diaphorase Reduction Kinetics Studies. Kinetic studies were carried out in 0.05 M pH 7.4 tris.HCl buffer, under anaerobic conditions, employing Thunberg cuvettes. A 2 mM stock solution of the appropriate PBI or APBI was prepared in dimethyl sulfoxide (DMSO). To the top port was added the quinone stock and to the bottom port was added DT-diaphorase and NADH in the tris buffer. The top and bottom ports were purged with argon for 20 minutes and equilibrated to 30° C. The ports were then mixed and the reaction followed at 296 nm for 25 minutes to obtain initial rates. The concentrations upon after mixing were 0.3 mM NADH, 1 to 20×10^-5 M quinone, and 14.5 nM (based on flavin) of enzyme active sites. The value of Δε was calculated from the initial and final absorbance values for complete quinone reduction, usual value for Δε is 6000 to 8000 M−1 cm−1. The value of Δε was used to calculate Vmax in M sec-1. The results were fitted to a Lineweaver-Burke plot from which kcat/Km values were calculated based on 14.5 nM of active sites.

A further series relates to cancer cell lines. The experiment in a line: Cytotoxicity (−log LC50) against cancer cell lines by cancer type. It counts as cell-based. Particulars: for cytotoxicity (in words): cancer cell lines, FIG. 2 and FIG. 4. The source says:
Each −log LC50 value is the average of up to eight values.
FIG. 4. illustrates the plots of −Log LC50 versus cancer type for S(−)-1, 2, 3. Each cancer type represents the average of six to eight different cancer cell lines.

Broadly, the Vmax is the rate approached at saturating substrate. On to `CC(=O)NC1CCn2c1nc1c2C(=O)C(C)=C(N2CC2)C1=O` (stereo not drawn) [S(−)-A], for which the “activity in B-16 melanoma model (area under the tumor versus time curve)” value with B-16 melanoma (listed as S(−) Yujungamycin A) is listed as “failed to show much difference in activity between the enantiomers; also recorded: no apparent differences between the enantiomers”; in the series with B-16 melanoma (listed as S(−)-Yujungamycin A), “activity”. The “Percentages of PBI Incorporation into DNA” value (shortened to “Percentages”) was 17.4% with Poly [dA] Poly [dT] and 6.6% in the series with Poly [dG] Poly [dC]. For the same molecule, the “Total Score (hollow fiber score)” value in the series with Human tumor cells is 52. Moreover, the “Intraperitonal Score” value in the series on Human tumor cells stood at 38. In the series on Human tumor cells, the “Subcutaneous Score” value is 14. Further, in the series with DT-diaphorase, the Vmax worked out at 47.6 nM/s.

Take `CC(=O)OC1CCN2C1=NC1C(=O)C(N3CC3)=C(C)C(=O)C12` (centres unmarked) [PBI-A]: in the series with Human tumor cells, the “Total Score (hollow fiber score)” value is 48; the “Intraperitonal Score” value is reported as 40; the “Subcutaneous Score” value came to 8; the “Cancer cell line types sensitive” value is “melanoma, NSC lung cancer, breast cancer, and ovarian cancer”. The “activity in the hollow fiber assay / in vivo” value in the series on Human tumor cells is “active in the hollow fiber assay”.

With `CC1=C(N2CC2)C(=O)c2nc3n(c2C1=O)CCC3OC(N)=O` (centres unmarked) [PBI-B], in the series on Human tumor cells, the “Total Score (hollow fiber score)” value was 30; the “Intraperitonal Score” value is 24; the “Subcutaneous Score” value was determined as 6; the “Cancer cell line types sensitive” value is “melanoma, NSC lung cancer, breast cancer, and ovarian cancer”. Further, the “activity in the hollow fiber assay / in vivo” value in the series with Human tumor cells is listed as “active in the hollow fiber assay”.

Regarding “3-Carbamido-6-aziridinyl-2,3-dihydro-7-methyl-1H-pyrrolo[1,2-a]benzimidazole-5,8-dione [S(−)-C]”, the “Percentages” value stood at 70% in the series on Poly [dA] Poly [dT] and 12.4% in the series on Poly [dG] Poly [dC]. In addition, in the series with DT-diaphorase, the maximum rate (Vmax) is 21.8 nM/s.

“3-Amino-6-azindinyl-2,3-dihydro-7-methyl-1H-pyrrolo[1,2-a]benzimidazole-5,8-dione [S(−)-B]”: the “Percentages” value in the series with Poly [dA] Poly [dT] (listed as S(−)−B) is listed as 186%; with Poly [dG] Poly [dC] (listed as S(−)−B), 52%.

With “3-Carbamido-6-aziridinyl-2,3-dihydro-7-methyl-1H-pyrrolo[1,2-a]benzimidazole-5,8-dione [R(+)-C]”, the “Percentages” value with Poly [dA] Poly [dT] came out at 31%; in the series with Poly [dG] Poly [dC], 17%. Also, the maximal velocity (Vmax) in the series with DT-diaphorase came to 39.3 nM/s.

As for “3-Amino-6-azindinyl-2,3-dihydro-7-methyl-1H-pyrrolo[1,2-a]benzimidazole-5,8-dione [R(+)-B]”, the figures for the “Percentages” value with Poly [dA] Poly [dT] (listed as R(+)−B) and in the series with Poly [dG] Poly [dC] (listed as R(+)−B) were 60% and 105%, respectively. In addition, the maximum rate (Vmax) in the series with DT-diaphorase was 14.6 nM/s.

“3-Amino-6-azindinyl-2,3-dihydro-7-methyl-1H-pyrrolo[1,2-a]benzimidazole-5,8-dione [Yujungamycin B]”: the “cytotoxicity (in words)” value in the series on cancer cell lines is “high potency”; with cancer cell lines (listed as 2), “high cytotoxicity against non-small-cell lung, central nervous system, melanoma, ovarian, and renal cancers”. Also, the “change in cytotoxicity, 3-hydroxy changed to 3-amino” value with cancer cell lines (relative to the 3-hydroxy derivative) is “˜million-fold change in cytotoxicity”.
